# Experimental data reported in US12076308B2, “Terpene control in scaleable cannabinoid medicinal formulations” (priority 2015, dated 2024).
# Read-outs that look alike come from different tables or passages of the source.
# What was measured:
# pancreatic cancer = conditions: cited from earlier work; for tumor volume over time: mice, repeated injections, compared with control group curve CRTL; for effect on pancreatic cancer cells/tumors in mice: reported by Donadelli, high dosages of CB1 ligand
# [1] = War veterans with PTSD given cannabinoid infused chocolates; type: in vivo, human; conditions: THC alone
# Description: In a separate set of observations and tests, war veterans suffering from post-traumatic stress disorder (PTSD) were observed purchasing large amounts of un-tested hashish from local dispensaries on sale days. After observing this, samples of this hashish were tested. […] Veterans suffering from PTSD received cannabinoid infused chocolates with controlled dosages. This process identified that chocolates infused with 44 mg of THC and 4 mg of CBD were effective in treating these veterans PTSD. Information reported by veterans identified that many of them were also suffering from pain and had been consuming opiates to combat the pain. The opiates that these veterans were taking reportedly exacerbated PTSD symptoms. […] Patients of Laguna Honda Hospital in California were also provided medications that included both THC and CBD and reported benefit.
SMILES,tumor volume over time (pancreatic cancer),effect on pancreatic cancer cells/tumors in mice (pancreatic cancer),effect on pancreatic cancer cells/tumors in mice (pancreatic cancer; listed as Rimonabant),"benefit when treating pain combined with PTSD, versus combined THC/CBD medication [1]",psychotic side effects associated with PTSD [1]
Nc1ccn([C@@H]2O[C@H](CO)[C@@H](O)C2(F)F)c(=O)n1 [Gemcitabine],grew at even a slower rate,–,–,–,–
"Cc1c(C(=O)NN2CCCCC2)nn(-c2ccc(Cl)cc2Cl)c1-c1ccc(Cl)cc1 [SR1, Rimonabant]",grew at a slower rate,reducing pancreatic cancer tumors,shrunk pancreatic cancer cells,–,–
"CCCCCc1cc(O)c2c(c1)OC(C)(C)[C@@H]1CCC(C)=C[C@@H]21 [THC, tetrahydrocannabinol]",–,–,–,either not effective or provided limited benefits,increased psychotic side effects
